Key:
serum IgG = assay: Serum IgG levels in ASCLEPIOS I/II (Pool C2)
Experimental: In the present application serum Ig levels can preferably be determined by immunoturbidimetry. Preferably a Roche cobas® Analyzer was used, especially module c of the cobas® analyser. In a preferred embodiment Ig levels can be determined by using a cobas® c 311 analyzer. It is further preferred that IgG measurements are carried out as described in the cobas® leaflet “IGG-2 Tina-quant IgG Gen. 2”, preferably version 11.0 dated 2016-02 and IgM measurements as described in the leaflet “IGM-2 Tina-quant IgM Gen. 2”, preferably version 13.0 dated 2018-11.
(§1) Serum samples were preferably kept at 2-8° C. before measurement.
Patients were randomised (1:1) to receive either ofatumumab 20 mg sc injections every 4 weeks (after an initial loading regimen of 20 mg sc doses on Days 1, 7 and 14) or teriflunomide 14 mg orally once daily, for up to 30 months.
(§2) Serum IgG/IgM levels were monitored at baseline, Week (W) 4, W12 and every 12 weeks, see FIG. 1.

[1] = tested on: multiple sclerosis patients; assay: Infections in relation to IgM/IgG levels <LLN vs >=LLN in ofatumumab MS studies
Text: as §2

CD19+ B-cells = assay: CD19+ B-cell depletion in ASCLEPIOS; type: in vivo, human
Experimental: ASCLEPIOS I and II are double-blind, double-dummy, active comparator-controlled, parallel-group, innovative, adaptive design, multicentre trials. Patients were randomised (1:1) to receive either ofatumumab 20 mg sc injections every 4 weeks (after an initial loading regimen of 20 mg sc doses on Days 1, 7 and 14) or teriflunomide 14 mg orally once daily, for up to 30 months. […] Patients aged 18-55 years with an Expanded Disability Status Scale (EDSS) score (according to Kurtzke, Neurology. 1983, Nov; 33(11): 1444-52) of 0-5.5 at screening who experienced ≥1 relapse in the past year or ≥2 relapses in the past 2 years or a positive gadolinium-enhancing (Gd+) MRI scan during the year before randomisation were included.

serum IgM = assay: Serum IgM levels in ASCLEPIOS I/II (Pool C2); type: in vivo, human; conditions: any time post-baseline, FIG. 9
Experimental: In the present application serum Ig levels can preferably be determined by immunoturbidimetry. Preferably a Roche cobas® Analyzer was used, especially module c of the cobas® analyser.
as §1
ASCLEPIOS I and II are double-blind, double-dummy, active comparator-controlled, parallel-group, innovative, adaptive design, multicentre trials. Patients were randomised (1:1) to receive either ofatumumab 20 mg sc injections every 4 weeks (after an initial loading regimen of 20 mg sc doses on Days 1, 7 and 14) or teriflunomide 14 mg orally once daily, for up to 30 months.

[2] = tested on: multiple sclerosis patients; conditions: in vivo; cited from earlier work
MS patients = conditions: cited from earlier work
IgG levels = assay: Metanalysis of Example 1 versus Derfuss et al. (pooled OPERA), IgG levels; type: in vivo, human; conditions: in vivo
Text: In a metanalysis, the results of Example 1 and the results obtained by Derfuss et al. were compared.

[3] = anytime during post baseline visit
[4] = Ofatumumab N=134, Teriflunomide N=214
[5] = after the last infusion, 51 patients from MS clinical studies

Compound: C/C(O)=C(\C#N)C(=O)Nc1ccc(C(F)(F)F)cc1 [teriflunomide]
- change in mean serum IgG value from baseline (serum IgG; Week 96): -0.421 g/L
- decrease in mean IgG value from baseline (serum IgG; Week 96): 4.1%
- patients with IgG levels on or above the LLN (serum IgG; any time post-baseline, FIG. 9): > 77%
- patients with IgG below LLN, n/N (serum IgG; [3]): 214/934
- proportion of patients with IgG below LLN (serum IgG; [3]): 22.9%
- Infections observed after the first drop of IgG<LLN [1, 4]: 36.4%
- Infections observed after the first drop of IgG<LLN, number of patients [1, 4]: 78
- patients who reported an infection post study drug discontinuation ([1]; among patients who discontinued treatment for Ig decline): 2 of 7
- patients with CD19+ B-cells below LLN (CD19+ B-cells; Week 1): (2.0) %
- patients with CD19+ B-cells below LLN, n/M (CD19+ B-cells; Week 1): 9/443
- patients with CD19+ B-cells below LLN (CD19+ B-cells; Week 2): (1.6) %
- patients with CD19+ B-cells below LLN, n/M (CD19+ B-cells; Week 2): 7/437
- patients with CD19+ B-cells below LLN (CD19+ B-cells; Week 4): (3.2) %
- patients with CD19+ B-cells below LLN, n/M (CD19+ B-cells; Week 4): 14/444
- patients with CD19+ B-cells below LLN (CD19+ B-cells; Week 12): (3.0) %
- patients with CD19+ B-cells below LLN, n/M (CD19+ B-cells; Week 12): 13/439
- patients with CD19+ B-cells below LLN (CD19+ B-cells; Week 24): (2.1) %
- patients with CD19+ B-cells below LLN, n/M (CD19+ B-cells; Week 24): 9/419
- patients with CD19+ B-cells below LLN (CD19+ B-cells; Week 36): (1.2) %
- patients with CD19+ B-cells below LLN, n/M (CD19+ B-cells; Week 36): 5/408
- patients with CD19+ B-cells below LLN (CD19+ B-cells; Week 48): (1.3) %
- patients with CD19+ B-cells below LLN, n/M (CD19+ B-cells; Week 48): 5/394
- patients with CD19+ B-cells below LLN (CD19+ B-cells; Week 60): (2.1) %
- patients with CD19+ B-cells below LLN, n/M (CD19+ B-cells; Week 60): 8/382
- patients with CD19+ B-cells below LLN (CD19+ B-cells; Week 72): (1.0) %
- patients with CD19+ B-cells below LLN, n/M (CD19+ B-cells; Week 72): 3/304
- patients with CD19+ B-cells below LLN (CD19+ B-cells; Week 84): (2.1) %
- patients with CD19+ B-cells below LLN, n/M (CD19+ B-cells; Week 84): 4/195
- patients with CD19+ B-cells below LLN (CD19+ B-cells; Week 96): (0.8) %
- patients with CD19+ B-cells below LLN, n/M (CD19+ B-cells; Week 96): 1/121
- patients with CD19+ B-cells below LLN (CD19+ B-cells; Week 108): (4.5) %
- patients with CD19+ B-cells below LLN, n/M (CD19+ B-cells; Week 108): 3/67
- patients with CD19+ B-cells below LLN, n/M (CD19+ B-cells; Week 120): 0/16
- patients with B-cells below LLN (CD19+ B-cells; throughout the study Treatment epoch): up to 4.5%
- patients with IgM levels on or above the LLN (serum IgM): > 90%

Compound: ocrelizumab: anti-CD20 monoclonal antibody with a humanized antibody backbone, approved for relapsing and primary progressive MS
- approximate mean rate of reduction in serum Ig levels [2]: 3-4 % per year
- infection rate, association with IgG, first value [2]: 6.50 /100PY
- infection rate, association with IgG, second (vs) value [2]: 2.11 /100PY
- infection rate, association with IgM, first value [2]: 3.66 /100PY
- infection rate, association with IgM, second (vs) value [2]: 1.88 /100PY
- median time for B-cell counts to return to either baseline or LLN (MS patients; [5]): 72 weeks
- range of time for B-cell counts to return to either baseline or LLN (MS patients; [5]): 27-175 weeks
- effect on total immunoglobulins (MS patients; in vivo): decrease in total immunoglobulins
- malignancies compared to control groups (MS patients; in vivo): increased number of malignancies
- patients whose B-cell counts rose to either baseline or LLN (MS patients; within 2.5 years after the last infusion): 90%
- effect on IgG levels on the long term (IgG levels): leads to a reduction of IgG levels

From patent publication US20230151106A1, “OFATUMUMAB FOR TREATING MS WHILE MAINTAINING SERUM IgG” (NOVARTIS AG, priority 2020, published 2023)
